Data published in patent US4273771A, “Novel Δ^4,9 -gonadiene-21-ol-3,20-diones” (Roussel Uclaf, priority 1978, dated 1981).

Experiments:
[1] = target: T1, specific progesterone receptors (uterine cytosol) (Oryctolagus cuniculus, UniProt P06186); assay: hormonal receptor method: displacement of tritiated Product R in rabbit uterine cytosol; format: binding; details: for ARL (relative affinity of the test product): progesterone = 100
T1 construct: the uterus was removed and homogenized in a buffered solution; from tissue; host or cells: uterus cytosol (105,000 g supernatant) of immature estradiol-treated rabbits
T1 sequence (P06186 1-930): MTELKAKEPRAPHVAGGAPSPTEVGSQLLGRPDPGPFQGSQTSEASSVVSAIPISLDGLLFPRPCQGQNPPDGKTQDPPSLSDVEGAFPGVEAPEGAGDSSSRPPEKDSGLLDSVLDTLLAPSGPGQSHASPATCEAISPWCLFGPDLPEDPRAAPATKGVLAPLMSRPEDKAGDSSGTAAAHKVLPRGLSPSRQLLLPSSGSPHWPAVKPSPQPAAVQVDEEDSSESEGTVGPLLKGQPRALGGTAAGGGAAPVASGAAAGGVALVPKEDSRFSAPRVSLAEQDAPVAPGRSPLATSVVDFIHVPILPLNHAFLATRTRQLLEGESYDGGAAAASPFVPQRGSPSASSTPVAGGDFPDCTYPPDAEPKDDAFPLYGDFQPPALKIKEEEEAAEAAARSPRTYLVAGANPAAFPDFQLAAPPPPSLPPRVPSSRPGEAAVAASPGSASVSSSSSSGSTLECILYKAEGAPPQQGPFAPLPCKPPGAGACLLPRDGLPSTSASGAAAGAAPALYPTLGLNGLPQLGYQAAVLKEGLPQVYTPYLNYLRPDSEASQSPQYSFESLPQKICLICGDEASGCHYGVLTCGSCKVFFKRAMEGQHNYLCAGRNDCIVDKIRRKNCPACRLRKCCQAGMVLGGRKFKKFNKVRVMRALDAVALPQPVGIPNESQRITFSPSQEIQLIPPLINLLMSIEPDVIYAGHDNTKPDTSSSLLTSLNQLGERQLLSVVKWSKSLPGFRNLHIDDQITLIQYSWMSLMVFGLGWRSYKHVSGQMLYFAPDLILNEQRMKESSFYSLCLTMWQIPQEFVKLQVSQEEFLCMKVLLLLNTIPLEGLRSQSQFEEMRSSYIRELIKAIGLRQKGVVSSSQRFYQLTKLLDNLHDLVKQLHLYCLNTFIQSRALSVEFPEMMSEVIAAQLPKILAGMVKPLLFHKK
Procedure: The progestomimetic activity was determined for the product A of Example 1 by the hormonal receptor method of Raynaud et al [J. Ster. Biochem., Vol. 6 (1975), p. 615-622 and Physiology and Genetics of Reproduction, 1975, Part A, p. 143-160]. Immature rabbits received 25 μg of estradiol percutaneously and were sacrificed after 5 days and the uterus was removed and homogenized in a buffered solution of 10 mM of tromethamine, 0.25 M of saccharose and a pH of 7.4 was kept with hydrochloric acid. The homogenate was centrifuged at 105,000 g per hour and the surnageant or cytosol was adjusted to a solution of 1/50 (weight/volume). […] The radioactivity of the tritiated product R was determined after 2 hours and after 24 hours by the technique of adsorption on carbondextran (1.25%-0.625%). The plots were the curves of the right parallel of the axis of abscisses of ordinate [formula] wherein Bo is the maximum amount of tied tritiated product R measured in the incubation containing only tritiated product R and Bmin is the minimum amount of tied tritiated product R (non-specific) measured in the incubation containing tritiated product R and a large excess of cold product R (2500×10^-9 M) and the curves representing the percentages of tied tritiated product R B/Bo as a logarithmatic function of the concentrations of added cold product R.
The intersections of these I50 straight lines and the curves permit the determination of the values: CP--concentration of cold progesterone which inhibits by 50% the fixation of the tritiated product R and CX--concentration of test product which inhibits by 50% the fixation of tritiated product R. The relative affinity of the test product (ARL) was determined by the formula [formula] and the results are reported in Table I

[2] = system: immature female mice; assay: antiestrogenic activity, uterus weight (method of Rubin and Dorfman et al); format: in vivo
Procedure: The estrogenic activity of the product A of Example 1 was also determined by the method of Rubin [Endocrinology, Vol. 49 (1951), p. 429] and Dorfman et al [Methods in Hormone Research, Vol. II (1962), p. 118] in which groups of 4 immature female mice 18 days old received once a day for 3 days a subcutaneous injection of estradiol only, only the test product or estradiol and the test product. In the last case, separate injections were used. The animals were killed on the 4th day and the uterus was removed, dissected and weighed. The test product was administered in a volume of 0.1 ml of sesame oil solution containing 5% of benzyl alcohol at a total dose of 0.27 μg of estradiol and the test compound was used at total doses of 0.3, 1.0, 3 and 10 μg.

[3] = system: immature rabbits sensitized with estradiol; assay: Clauberg test: proliferation of endometric lace; format: in vivo, rabbit; details: for MacPhail units: subcutaneous, 5 days
Procedure: The progestomimetic activity was also determined by the Clauberg test in which groups of 3 immature rabbits were previously sensitized by subcutaneous administration of estradiol for 5 days at a daily dose of 5 μg. Two days after the last treatment, the compound A of Example 1 in solution in sesame oil containing 5% of benzyl alcohol was subcutaneously administered daily for 5 days and the rabbits were killed on the 6th day. The uterus was removed and the proliferation of endometric lace which is characteristic of progestomimetic activity was determined in MacPhail units.

[4] = total dose 0.3 μg + estradiol 0.27 μg
[5] = total dose 1 μg + estradiol 0.27 μg
[6] = total dose 3 μg + estradiol 0.27 μg
[7] = total dose 10 μg + estradiol 0.27 μg

With `CC(O)C(=O)C1(C)CCC2C3CCC4=CC(=O)CCC4=C3CCC21C` (single isomer, unassigned) [Product A of Example 1, 17α-methyl-17β-(2-hydroxy-1-oxopropyl)-Δ^4,9-estradiene-3-one] the “ARL (relative affinity of the test product)” value ([1]; 2 h incubation at 0° C.) was 204, the “ARL (relative affinity of the test product)” value ([1]; 24 h incubation at 0° C.) was 688 and the “affinity for specific uterine reception of progesterone compared with progesterone” value ([1]; result in words) was “much greater affinity”. For the same compound, the “antiestrogenic activity against estradiol” value ([2]; dose of 1 μg, result in words) was “clear antiestrogenic activity”, the “Average Weight of uterus” value ([2]; test product only, total dose 0.3 μg) was 14.6 mg and the “Average Weight of uterus” value ([2]; test product only, total dose 1 μg) was 13.0 mg. The “Average Weight of uterus” value ([2]; test product only, total dose 3 μg) was 17.1 mg, the “Average Weight of uterus” value ([2]; test product only, total dose 10 μg) was 15.8 mg and the “Average Weight of uterus” value [2, 4] was 80.5 mg. For the same compound, the “change of average uterus weight versus estradiol only” value (shortened to “change”) [2, 4] was -19%, the “Average Weight of uterus” value [2, 5] was 59.6 mg and the “change” value [2, 5] was -39%. For the same compound, the “Average Weight of uterus” value [2, 6] was 38.5 mg, the “change” value [2, 6] was -61% and the “Average Weight of uterus” value [2, 7] was 39.6 mg. For the same compound, the “change” value [2, 7] was -60%, the MacPhail units ([3]; 1 μg daily) was 2.2 MacPhail units and the MacPhail units ([3]; 3 μg daily) was 3.4 MacPhail units. For the same compound, the MacPhail units ([3]; 10 μg daily) was 3.4 MacPhail units and the progestomimetic activity ([3]; result in words) was “very strong progestomimetic activity”.

`C[C@]12CC[C@@H]3c4ccc(O)cc4CC[C@H]3[C@@H]1CC[C@@H]2O` [Estradiol, reference compound] was tested, and the “Average Weight of uterus” value ([2]; estradiol only, total dose 0.27 μg, subcutaneous, 3 days) was 99.3 mg.
